The values that follow are results of earlier work, collected in patent US20250366801A1, “ESTIMATION OF CEREBROVASCULAR RESERVE” (MedTrace Pharma A/S, priority 2024, published 2025).

For this data set the following is noted: single standard dose of 1000 mg intravenously; patients with atherosclerotic cerebrovascular disease (Vagal 2009).

For the compound `CC(=O)Nc1nnc(S(N)(=O)=O)s1` [Acetazolamide, acetazolamide], the “time of peak cerebral blood flow augmentation after the intravenous bolus injection” value is 10 to 15 min.
